≈ marks a conversion by molar mass, not a printed value. Where two headings read alike, the source gives them in different places.
Legend:
Experiment in all cases: microbe, parasite or virus in culture
Assay type in all cases: cell-based, Mycobacterium tuberculosis
[1] = system: isoniazid resistant strain INH-R1
[2] = system: isoniazid resistant strain INH-R2
[3] = system: rifampicin resistant strain RIF-R1
[4] = system: rifampicin resistant strain RIF-R2
[5] = system: fluoroquinolone resistant strain FQ-R1
[6] = Mycobacterium tuberculosis, INHR1
[7] = Mycobacterium tuberculosis, INHR2
[8] = Mycobacterium tuberculosis, RIFR1, read-out: IC50
[9] = Mycobacterium tuberculosis, RIFR1, read-out: IC90
[10] = Mycobacterium tuberculosis, RIFR1, read-out: MIC
[11] = Mycobacterium tuberculosis, RIFR2, read-out: IC50
[12] = Mycobacterium tuberculosis, RIFR2, read-out: IC90
[13] = Mycobacterium tuberculosis, RIFR2, read-out: MIC
[14] = Mycobacterium tuberculosis, FQR1, read-out: IC50
[15] = Mycobacterium tuberculosis, FQR1, read-out: IC90
[16] = Mycobacterium tuberculosis, FQR1, read-out: MIC
[17] = Mycobacterium tuberculosis, RIFR1
[18] = Mycobacterium tuberculosis, RIFR2
[19] = Mycobacterium tuberculosis, FQR1

Work on “4-[3-(4-Chlorophenyl)-1-(ethoxycarbonyl)indolizine-7-yl)-1-(2-(4-methoxyphenyl)-2-oxoethyl)pyridine-1-ium bromide [Compound 6c]” yielded an MIC ([1]; INH-R1) of 14 µM, an IC50 ([1]; INH-R1, read-out: IC50) of 6.9 µM and an IC90 ([1]; INH-R1, read-out: IC90) of 14 µM. For the same compound, the MIC ([2]; INH-R2) was 16 µM, the IC50 ([2]; INH-R2, read-out: IC50) was 6.2 µM and the IC90 ([2]; INH-R2, read-out: IC90) was 19 µM. For the same compound, the IC50 ([3]; read-out: IC50) was 6.5 µM, the IC90 ([3]; read-out: IC90) was 10 µM and the MIC ([3]; read-out: MIC) was 10 µM. For the same compound, the IC90 ([4]; read-out: IC90) was 12 µM, the MIC ([4]; read-out: MIC) was 13 µM and the IC50 ([5]; read-out: IC50) was 8 µM. The IC90 ([5]; read-out: IC90) was 16 µM and the MIC ([5]; read-out: MIC) was 16 µM.
`CCOC(=O)c1cc(C(=O)c2ccccc2)n2ccc(-c3cc[n+](CC(=O)c4ccc(C)cc4)cc3)cc12.[Br-]` [Compound 6a, 4-(3-Benzoyl-1-(ethoxycarbonyl)indolizine-7-yl)-1-(2-oxo-2-(p-tolyl)ethyl)pyridin-1-ium bromide] was tested, and the IC50 [1, 6] was 13 µM, the IC90 [1, 6] was 35 µM and the MIC [1, 6] was 33 µM. The IC50 [2, 7] was 12 µM, the IC90 [2, 7] was 22 µM and the MIC [2, 7] was 19 µM. For the same compound, the IC50 [3, 8] was 8.3 µM, the IC90 [3, 9] was 13 µM and the MIC [3, 10] was 14 µM. For the same compound, the IC50 [4, 11] was 12 µM, the IC90 [4, 12] was 29 µM and the MIC [4, 13] was 31 µM. The IC50 [5, 14] was 15 µM, the IC90 [5, 15] was 32 µM and the MIC [5, 16] was 31 µM.
`CCOC(=O)c1cc(C(=O)c2ccc(Cl)cc2)n2ccc(-c3cc[n+](CC(=O)c4cccc(OC)c4)cc3)cc12` [Compound 6d, 4-(3-(4-Chlorobenzoyl)-1-(ethoxycarbonyl)indolizine-7-yl)-1-(2-(3-methoxyphenyl)-2-oxoethyl)pyridin-1-ium] gave an IC50 [1, 6] of 14 µM, an IC90 [1, 6] of 36 µM and an MIC [1, 6] of 28 µM. For the same compound, the IC50 [2, 7] was 15 µM, the IC90 [2, 7] was 35 µM and the MIC [2, 7] was 30 µM. For the same compound, the IC50 [3, 8] was 12 µM, the IC90 [3, 9] was 24 µM and the MIC [3, 10] was 22 µM. For the same compound, the IC50 [4, 11] was 12 µM, the IC90 [4, 12] was 14 µM and the MIC [4, 13] was 16 µM. The IC50 [5, 14] was 21 µM, the IC90 [5, 15] was 32 µM and the MIC [5, 16] was 32 µM.
With `CCOC(=O)c1cc(C(=O)c2ccc(Br)cc2)n2ccc(-c3cc[n+](CC(=O)c4cccc(OC)c4)cc3)cc12` [Compound 6h, 4-(3-(4-Bromobenzoyl)-1-(ethoxycarbonyl)indolizine-7-yl)-1-(2-(3-methoxyphenyl)-2-oxoethyl)pyridin-1-ium] the IC50 [1, 6] was 18 µM, the IC90 [1, 6] was > 50 µM and the MIC [1, 6] was > 50 µM. The IC50 [2, 7] was 16 µM, the IC90 [2, 7] was 43 µM and the MIC [2, 7] was > 50 µM. The IC50 [3, 8] was 13 µM, the IC90 [3, 9] was 26 µM and the MIC [3, 10] was 24 µM. For the same compound, the IC50 [4, 11] was 15 µM, the IC90 [4, 12] was > 50 µM and the MIC [4, 13] was > 50 µM. For the same compound, the IC50 [5, 14] was 26 µM, the IC90 [5, 15] was > 50 µM and the MIC [5, 16] was > 50 µM.
For `CCOC(=O)c1cc(C(=O)c2ccc(Cl)cc2)n2ccc(-c3cc[n+](CC(=O)c4ccc(C)cc4)cc3)cc12` [Compound 6i], the IC50 [1, 6] was 13 µM, the IC90 [1, 6] was 23 µM and the MIC [1, 6] was 22 µM. For the same compound, the IC50 [2, 7] was 9.8 µM, the IC90 [2, 7] was 20 µM and the MIC [2, 7] was 20 µM. For the same compound, the IC50 [3, 8] was 7.7 µM, the IC90 [3, 9] was 15 µM and the MIC [3, 10] was 15 µM. It also gave an IC50 [4, 11] of 12 µM, an IC90 [4, 12] of 22 µM and an MIC [4, 13] of 22 µM. For the same compound, the IC50 [5, 14] was 11 µM, the IC90 [5, 15] was 28 µM and the MIC [5, 16] was 27 µM.
`NNC(=O)c1ccncc1` [Isoniazid, reference compound] was tested, and the IC50 [1, 6] was > 200 µM, the IC90 [1, 6] was > 200 µM and the MIC [1, 6] was > 200 µM. For the same compound, the IC50 [2, 7] was > 200 µM, the IC90 [2, 7] was > 200 µM and the MIC [2, 7] was > 200 µM. The IC50 [3, 8] was 0.063 µM, the IC90 [3, 9] was 0.094 µM and the MIC [3, 10] was 0.092 µM (≈ 0.0126 µg/mL). It also gave an IC50 [4, 11] of 0.27 µM, an IC90 [4, 12] of 0.3 µM and an MIC [4, 13] of 0.31 µM (≈ 0.0425 µg/mL). The IC50 [5, 14] was 0.13 µM, the IC90 [5, 15] was 0.15 µM and the MIC [5, 16] was 0.16 µM (≈ 0.0219 µg/mL).
With `C[C@H]1COc2c(N3CCN(C)CC3)c(F)cc3c(=O)c(C(=O)O)cn1c23` [Levofloxacin, levofloxacin, reference compound] the IC50 [1, 6] was 1.9 µM, the IC90 [1, 6] was 3 µM and the MIC [1, 6] was 2.9 µM (≈ 1.05 µg/mL). It also gave an IC50 [2, 7] of 2.4 µM, an IC90 [2, 7] of 4.3 µM and an MIC [2, 7] of 3.5 µM (≈ 1.26 µg/mL). For the same compound, the IC50 [3, 8] was 1.6 µM, the IC90 [3, 9] was 2.6 µM and the MIC [3, 10] was 2.7 µM (≈ 0.976 µg/mL). For the same compound, the IC50 [4, 11] was 1.7 µM, the IC90 [4, 12] was 3 µM and the MIC [4, 13] was 2.9 µM (≈ 1.05 µg/mL). For the same compound, the IC50 [5, 14] was 49 µM, the IC90 [5, 15] was 110 µM and the MIC [5, 16] was 110 µM (≈ 39.8 µg/mL).
In the case of `CO[C@H]1/C=C/O[C@@]2(C)Oc3c(C)c(O)c4c(O)c(c(/C=N/N5CCN(C)CC5)c(O)c4c3C2=O)NC(=O)/C(C)=C\C=C\[C@H](C)[C@H](O)[C@@H](C)[C@@H](O)[C@@H](C)[C@H](OC(C)=O)[C@@H]1C` [Rifampicin, reference compound], the IC50 [1, 6] is reported as 0.012 µM, the IC90 [1, 6] is reported as 0.031 µM and the MIC [1, 6] is reported as 0.022 µM (≈ 0.0181 µg/mL). The IC50 [2, 7] was 0.007 µM, the IC90 [2, 7] was 0.016 µM and the MIC [2, 7] was 0.013 µM (≈ 0.0107 µg/mL). It also gave an IC50 [3, 17] of 1.1 µM, an IC90 [3, 17] of 3.8 µM and an MIC [3, 17] of 5.3 µM (≈ 4.36 µg/mL). For the same compound, the IC50 [4, 18] was > 50 µM, the IC90 [4, 18] was > 50 µM and the MIC [4, 18] was > 50 µM. The IC50 [5, 19] was 0.013 µM, the IC90 [5, 19] was 0.033 µM and the MIC [5, 19] was 0.024 µM (≈ 0.0198 µg/mL).

Reference: PMC6021032, “Antimycobacterial activity of nitrogen heterocycles derivatives: 7-(pyridine-4-yl)-indolizine derivatives. Part VII^8–12” (Journal of Enzyme Inhibition and Medicinal Chemistry, 2017)
